“And” between values parts separate entries of the source, which are not always exact repeats. Identical values can stand only once. Counter-ions that a name gives are not always drawn. Like-named read-outs stand apart in the source and are kept apart here.
Columns and labels:
[1] = test system: 129SvEv;C57Bl/6J F1 hybrid mice; test: Marble burying; assay type: in vivo; details: mouse, 10 min before 15 min test
Sprague-Dawley rats [2] = test: Forced swim test; assay type: in vivo; details: rat, three doses, 300 sec test
[3] = test system: 129SvEv;C57Bl/6J F1 hybrid mice; test: Forced swim test; assay type: in vivo, mouse; details: 6 min test; for immobility time vs vehicle: mouse
Straub tail observation = assay type: in vivo; details: doses used in the behavioral studies
Sprague-Dawley rats [4] = test: Open field locomotor activity; assay type: in vivo; details: rat, 30 min after injection, 10 min test
[5] = test system: opiate receptor binding sites labeled by [^3H]-naloxone; test: [3H]-naloxone binding competition assay in rat forebrain membranes
[6] = 100 mg/kg, sc; ref Pohland et al., 1971; cited from earlier work
rat α3β4 nAChRs = details: 2001, cited from earlier work; for block of rat α3β4 nAChR channels: ref Xiao et al.
human α3β4 nAChRs = human α3β4 nAChRs (Homo sapiens, UniProt P30926+P32297); test: 86Rb+ efflux assay, block of nicotine-stimulated channel function
Sequence of human α3β4 nAChRs (P32297 32-505): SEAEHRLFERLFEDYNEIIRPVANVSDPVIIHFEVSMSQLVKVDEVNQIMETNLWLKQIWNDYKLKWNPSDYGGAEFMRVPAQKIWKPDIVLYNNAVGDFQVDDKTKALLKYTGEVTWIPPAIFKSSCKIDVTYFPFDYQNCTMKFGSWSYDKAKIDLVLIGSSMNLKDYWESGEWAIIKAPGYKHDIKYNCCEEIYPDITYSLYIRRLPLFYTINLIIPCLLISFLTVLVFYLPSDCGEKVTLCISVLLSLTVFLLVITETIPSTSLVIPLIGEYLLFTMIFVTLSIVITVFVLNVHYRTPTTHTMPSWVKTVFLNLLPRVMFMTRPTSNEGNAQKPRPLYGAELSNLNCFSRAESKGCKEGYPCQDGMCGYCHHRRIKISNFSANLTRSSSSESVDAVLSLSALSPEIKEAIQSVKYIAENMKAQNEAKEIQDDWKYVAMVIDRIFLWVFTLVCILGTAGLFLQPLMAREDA
Sequence of human α3β4 nAChRs (P30926 22-498): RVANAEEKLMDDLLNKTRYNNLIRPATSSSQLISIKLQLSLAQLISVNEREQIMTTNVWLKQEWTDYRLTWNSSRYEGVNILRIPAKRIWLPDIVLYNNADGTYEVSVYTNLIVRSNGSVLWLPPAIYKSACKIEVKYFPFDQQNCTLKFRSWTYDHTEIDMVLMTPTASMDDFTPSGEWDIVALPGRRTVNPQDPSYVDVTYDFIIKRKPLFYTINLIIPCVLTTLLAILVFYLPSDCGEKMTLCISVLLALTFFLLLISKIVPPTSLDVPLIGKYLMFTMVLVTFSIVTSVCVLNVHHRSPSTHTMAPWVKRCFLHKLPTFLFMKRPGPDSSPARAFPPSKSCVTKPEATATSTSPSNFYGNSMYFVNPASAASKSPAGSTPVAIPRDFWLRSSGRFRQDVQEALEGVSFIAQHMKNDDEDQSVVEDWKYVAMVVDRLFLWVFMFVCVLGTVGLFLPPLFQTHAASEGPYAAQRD

[7] = test system: 129SvEv;C57Bl/6J F1 hybrid mice; test: Home cage locomotor activity; assay type: in vivo; details: mouse, 0.5, 1, 5, 10 mg/kg i.p., 60 min
Sprague-Dawley rats [8] = assay type: in vivo; details: rat
[9] = [3H]-naloxone sites, rat forebrain

## 2-ethylidene-1,5,dimethyl-3,3-diphenylpyrrolidine perchlorate [EDDP]
[1]; 5 mg/kg i.p.
  marbles buried vs vehicle: buried significantly fewer marbles
[1]; 10 mg/kg i.p.
  marbles buried vs vehicle: did not reach statistical significance
Sprague-Dawley rats [2]; 10 mg/kg s.c.
  immobile time vs vehicle: without effect
[3]; mouse, 1, 5, or 10 mg/kg i.p.
  duration of immobility vs vehicle: did not produce a significant effect on duration of immobility
Straub tail observation
  Straub tail effects: failed to observe any Straub tail effects
Sprague-Dawley rats [4]; 10mg/kg s.c.
  open field locomotor activity: neither EDDP nor EMDP significantly altered open field locomotor activity
[5]; [9]
  fold lower affinity than methadone: ~ 83 fold
  fraction of binding sites competed for: nearly all of the binding sites
[6]
  analgesia in the tail-flick assay: neither compound produces analgesia
Rat α3β4 nAChRs
  block of rat α3β4 nAChR channels: potently block

## CNC1=Nc2ccc(Cl)cc2C(c2ccccc2)=[N+]([O-])C1 [CDP, chlordiazepoxide HCl, reference compound]
[1]; 10 mg/kg i.p.
  marbles buried vs vehicle: buried significantly fewer marbles

## CCC1=NC(C)CC1(c1ccccc1)c1ccccc1.Cl (centres unmarked) [EMDP, 2-ethyl-5-methyl-3,3,-diphenyl-1-pyrroline hydrochloride]
Human α3β4 nAChRs
  potency relative to mecamylamine in blocking human α3β4 nAChRs: only half as potent as mecamylamine
[1]; 1 mg/kg i.p.
  marbles buried vs vehicle: not at the 1 mg/kg dose
[1]; 5 mg/kg i.p.
  marbles buried vs vehicle: buried significantly fewer marbles
[1]; 10 mg/kg i.p.
  marbles buried vs vehicle: buried significantly fewer marbles
Sprague-Dawley rats [2]; 10 mg/kg s.c.
  immobile time vs vehicle: reduced immobile time
Sprague-Dawley rats [2]; 20 mg/kg s.c.
  immobile time vs vehicle: reduced immobile time
[3]; 5 mg/kg i.p.
  immobility time vs vehicle: did not affect immobility time
[3]; 10 mg/kg i.p.
  immobility time vs vehicle: significantly reduced it
Straub tail observation
  Straub tail effects: failed to observe any Straub tail effects
Sprague-Dawley rats [4]; 5mg/kg s.c.
  open field locomotor activity: neither EDDP nor EMDP significantly altered open field locomotor activity
[5]; 2 nM [3H]-naloxone, rat forebrain, single-site fit
  Ki: 21 µM
[5]; [9]
  fold lower affinity than methadone: 1900 fold and ~ 1900 fold
[5]; even at a concentration of 100 μM
  sites competed for: 60%
[6]
  analgesia in the tail-flick assay: neither compound produces analgesia
[7]
  overall locomotor activity: did not significantly affect overall locomotor activity
Sprague-Dawley rats [8]; 20 mg/kg
  ptosis over 3h observation: ptosis was not apparent at any time
Sprague-Dawley rats [8]; 10 and 20 mg/kg
  ptosis observed during forced swim tests: did not produce ptosis
Rat α3β4 nAChRs; ref Xiao et al
  potency relative to mecamylamine in blocking rat α3β4 nAChRs: only one-sixth as potent
Rat α3β4 nAChRs
  block of rat α3β4 nAChR channels: potently block

## CNC1(C)C2CCC(C2)C1(C)C (centres unmarked) [Mecamylamine, Mecamylamine HCl]
Sprague-Dawley rats [2]; 5 mg/kg s.c.
  immobile time vs vehicle: reduced immobile time
Sprague-Dawley rats [8]; 5 mg/kg
  onset of ptosis after injection: ≤ 15 min
  ptosis observed during forced swim tests: obvious ptosis
Sprague-Dawley rats [8]; 5 mg/kg, significant at 30 and 45 min, not at 3 h
  ptosis over 3h observation: produced ptosis in a time-dependent manner

## CN[C@H]1CC[C@@H](c2ccc(Cl)c(Cl)c2)c2ccccc21 [sertraline, sertraline HCl, reference compound]
Sprague-Dawley rats [2]; 20 mg/kg s.c.
  immobile time vs vehicle: significantly reduced immobile time

From publication PMC4681651 (Neuropharmacology, 2015)
